This is an account of results in article PMC4490784, “Compensatory induction of MYC expression by sustained CDK9 inhibition via a BRD4-dependent mechanism” (eLife, 2015).

Test in all cases: biochemical binding or enzymatic assay
One assay deals with T1, EGFR (Homo sapiens, UniProt P00533).
T1 construct: purchased DiscoveRx KINOMEscan
To be noted: Novartis. How it is done:
(§1) Finally, the selectivity profile of i-CDK9 toward other non-CDK kinases was also assessed using the KINOMEscan platform. […] Except for CLK4, for which no suitable assay was available, the rest of the kinases plus a selected group of others were re-examined for the concentration-dependent effect of i-CDK9 in either functional kinase assays or binding assays. […] Indeed, it has recently been reported that DYRK1A acts as a Pol II CTD Kinase at its target gene promoters ([Di Vona et al., 2015]).

The target in the next assay is T2, BTK (Homo sapiens, UniProt Q06187).
T2 construct: purchased DiscoveRx KINOMEscan
To be noted: Novartis. How it is done:
as §1

For the next assay, the target named is T3, ALK (Homo sapiens, UniProt Q9UM73).
T3 construct: purchased DiscoveRx KINOMEscan
To be noted: Novartis. How it is done: as §1

Another assay deals with T4, FYN (Homo sapiens, UniProt P06241).
T4 construct: purchased DiscoveRx KINOMEscan
To be noted: Novartis. As to the method: as §1

Another assay has as its target T5, SYK (Homo sapiens, UniProt P43405).
T5 construct: purchased DiscoveRx KINOMEscan
To be noted: Novartis. How it is done:
as §1

Another assay addresses T6, CLK1 (Homo sapiens, UniProt P49759).
T6 construct: purchased DiscoveRx KINOMEscan
To be noted: Invitrogen. As to the method:
as §1

For another assay, the target named is T7, PCTK2 (Homo sapiens, UniProt Q00537).
T7 construct: purchased DiscoveRx KINOMEscan
To be noted: Ambit. As to the method:
as §1

For another assay, the target named is T8, AXL (Homo sapiens, UniProt P30530).
T8 construct: purchased DiscoveRx KINOMEscan
To be noted: Novartis. As to the method: as §1

The target in the next assay is T9, EPHB4 (Homo sapiens, UniProt P54760).
T9 construct: purchased DiscoveRx KINOMEscan
T9 sequence (P54760 16-987): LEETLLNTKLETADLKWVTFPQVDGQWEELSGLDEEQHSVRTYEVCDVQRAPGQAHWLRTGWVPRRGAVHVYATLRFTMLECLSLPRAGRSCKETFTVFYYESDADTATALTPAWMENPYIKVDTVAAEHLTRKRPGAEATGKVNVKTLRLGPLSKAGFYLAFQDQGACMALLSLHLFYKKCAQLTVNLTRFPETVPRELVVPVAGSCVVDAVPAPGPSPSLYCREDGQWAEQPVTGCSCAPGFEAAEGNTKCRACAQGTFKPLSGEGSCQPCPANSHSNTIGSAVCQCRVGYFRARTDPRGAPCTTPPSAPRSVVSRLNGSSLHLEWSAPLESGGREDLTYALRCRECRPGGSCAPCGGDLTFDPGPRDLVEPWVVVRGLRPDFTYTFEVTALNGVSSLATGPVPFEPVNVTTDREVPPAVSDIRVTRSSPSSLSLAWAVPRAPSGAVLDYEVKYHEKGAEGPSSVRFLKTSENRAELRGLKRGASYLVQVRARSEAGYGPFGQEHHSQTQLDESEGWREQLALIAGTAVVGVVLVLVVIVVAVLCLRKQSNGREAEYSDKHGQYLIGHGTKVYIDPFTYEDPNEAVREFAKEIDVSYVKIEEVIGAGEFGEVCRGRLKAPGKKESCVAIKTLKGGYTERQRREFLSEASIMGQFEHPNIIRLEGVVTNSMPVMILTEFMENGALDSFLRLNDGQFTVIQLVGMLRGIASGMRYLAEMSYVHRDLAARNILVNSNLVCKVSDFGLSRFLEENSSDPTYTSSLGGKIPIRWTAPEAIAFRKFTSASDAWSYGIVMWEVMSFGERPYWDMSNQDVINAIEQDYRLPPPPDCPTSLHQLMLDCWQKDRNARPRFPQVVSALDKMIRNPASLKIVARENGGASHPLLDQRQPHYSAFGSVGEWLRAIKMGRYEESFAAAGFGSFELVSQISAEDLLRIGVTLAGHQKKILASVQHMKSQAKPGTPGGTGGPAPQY
To be noted: Novartis. As to the method:
as §1

For the next assay, the target named is T10, MAPKAPK5 (Homo sapiens, UniProt Q8IW41).
T10 construct: purchased DiscoveRx KINOMEscan
T10 sequence (Q8IW41 1-473): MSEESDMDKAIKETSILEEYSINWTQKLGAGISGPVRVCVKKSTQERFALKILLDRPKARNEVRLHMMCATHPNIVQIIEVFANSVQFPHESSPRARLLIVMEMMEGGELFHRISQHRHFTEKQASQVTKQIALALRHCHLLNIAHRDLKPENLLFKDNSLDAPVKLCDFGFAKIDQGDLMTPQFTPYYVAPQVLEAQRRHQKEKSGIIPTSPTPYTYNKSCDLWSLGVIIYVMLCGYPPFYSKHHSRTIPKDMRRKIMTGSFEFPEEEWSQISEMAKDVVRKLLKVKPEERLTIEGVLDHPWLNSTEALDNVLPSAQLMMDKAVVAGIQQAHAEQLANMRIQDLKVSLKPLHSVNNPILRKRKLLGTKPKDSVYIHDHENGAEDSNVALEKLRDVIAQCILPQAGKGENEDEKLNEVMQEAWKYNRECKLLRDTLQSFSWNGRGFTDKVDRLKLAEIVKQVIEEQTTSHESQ
To be noted: Novartis. As to the method:
as §1

The next assay concerns the target T11, PIM2 (Homo sapiens, UniProt Q9P1W9).
T11 construct: purchased DiscoveRx KINOMEscan
To be noted: Novartis. How it is done:
as §1

In the next assay the target is T12, SRC (Homo sapiens, UniProt P12931).
T12 construct: purchased DiscoveRx KINOMEscan
To be noted: Novartis. How it is done:
as §1

The target in another assay is T13, CSK (Homo sapiens, UniProt P41240).
T13 construct: purchased DiscoveRx KINOMEscan
To be noted: Novartis. How it is done:
as §1

Another assay concerns the target T14, PKN2 (Homo sapiens, UniProt Q16513).
T14 construct: purchased DiscoveRx KINOMEscan
To be noted: Novartis. How it is done:
as §1

The next assay deals with T15, CSNK1G3 (Homo sapiens, UniProt Q9Y6M4).
T15 construct: purchased DiscoveRx KINOMEscan
To be noted: Novartis. How it is done:
as §1

Another assay concerns the target T16, AURKA (Homo sapiens, UniProt O14965).
T16 construct: purchased DiscoveRx KINOMEscan
T16 sequence (O14965 1-403): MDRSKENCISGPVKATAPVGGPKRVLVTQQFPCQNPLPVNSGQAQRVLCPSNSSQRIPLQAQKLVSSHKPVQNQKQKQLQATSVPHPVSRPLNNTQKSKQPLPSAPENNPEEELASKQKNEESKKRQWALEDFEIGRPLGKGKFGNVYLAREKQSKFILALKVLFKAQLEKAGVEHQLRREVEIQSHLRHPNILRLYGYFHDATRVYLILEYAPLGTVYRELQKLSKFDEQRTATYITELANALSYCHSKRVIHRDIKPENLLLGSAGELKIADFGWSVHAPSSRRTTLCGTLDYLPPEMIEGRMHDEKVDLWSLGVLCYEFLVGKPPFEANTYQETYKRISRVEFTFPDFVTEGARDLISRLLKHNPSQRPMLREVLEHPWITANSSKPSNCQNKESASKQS
To be noted: Novartis. As to the method:
as §1

In the next assay the target is T17, PDGFRA (Homo sapiens, UniProt P16234).
T17 construct: purchased DiscoveRx KINOMEscan
To be noted: Novartis. As to the method: as §1

Each structure is given as a SMILES string.

T6 sequence (P49759 whole entry): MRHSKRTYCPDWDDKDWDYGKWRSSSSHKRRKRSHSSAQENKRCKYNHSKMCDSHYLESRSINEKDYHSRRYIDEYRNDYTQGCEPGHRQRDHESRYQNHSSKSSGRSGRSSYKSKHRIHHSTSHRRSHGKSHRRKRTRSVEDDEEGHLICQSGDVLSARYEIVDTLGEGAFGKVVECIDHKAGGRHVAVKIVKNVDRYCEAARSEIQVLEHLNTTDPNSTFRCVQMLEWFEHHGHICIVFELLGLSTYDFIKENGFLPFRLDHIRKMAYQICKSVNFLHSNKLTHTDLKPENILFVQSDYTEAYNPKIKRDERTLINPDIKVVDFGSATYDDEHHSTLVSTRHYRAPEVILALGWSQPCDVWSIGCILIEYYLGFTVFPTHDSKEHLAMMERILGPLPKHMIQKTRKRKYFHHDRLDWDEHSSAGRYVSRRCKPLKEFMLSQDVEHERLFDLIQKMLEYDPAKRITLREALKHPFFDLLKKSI
T1 sequence (P00533 25-1210): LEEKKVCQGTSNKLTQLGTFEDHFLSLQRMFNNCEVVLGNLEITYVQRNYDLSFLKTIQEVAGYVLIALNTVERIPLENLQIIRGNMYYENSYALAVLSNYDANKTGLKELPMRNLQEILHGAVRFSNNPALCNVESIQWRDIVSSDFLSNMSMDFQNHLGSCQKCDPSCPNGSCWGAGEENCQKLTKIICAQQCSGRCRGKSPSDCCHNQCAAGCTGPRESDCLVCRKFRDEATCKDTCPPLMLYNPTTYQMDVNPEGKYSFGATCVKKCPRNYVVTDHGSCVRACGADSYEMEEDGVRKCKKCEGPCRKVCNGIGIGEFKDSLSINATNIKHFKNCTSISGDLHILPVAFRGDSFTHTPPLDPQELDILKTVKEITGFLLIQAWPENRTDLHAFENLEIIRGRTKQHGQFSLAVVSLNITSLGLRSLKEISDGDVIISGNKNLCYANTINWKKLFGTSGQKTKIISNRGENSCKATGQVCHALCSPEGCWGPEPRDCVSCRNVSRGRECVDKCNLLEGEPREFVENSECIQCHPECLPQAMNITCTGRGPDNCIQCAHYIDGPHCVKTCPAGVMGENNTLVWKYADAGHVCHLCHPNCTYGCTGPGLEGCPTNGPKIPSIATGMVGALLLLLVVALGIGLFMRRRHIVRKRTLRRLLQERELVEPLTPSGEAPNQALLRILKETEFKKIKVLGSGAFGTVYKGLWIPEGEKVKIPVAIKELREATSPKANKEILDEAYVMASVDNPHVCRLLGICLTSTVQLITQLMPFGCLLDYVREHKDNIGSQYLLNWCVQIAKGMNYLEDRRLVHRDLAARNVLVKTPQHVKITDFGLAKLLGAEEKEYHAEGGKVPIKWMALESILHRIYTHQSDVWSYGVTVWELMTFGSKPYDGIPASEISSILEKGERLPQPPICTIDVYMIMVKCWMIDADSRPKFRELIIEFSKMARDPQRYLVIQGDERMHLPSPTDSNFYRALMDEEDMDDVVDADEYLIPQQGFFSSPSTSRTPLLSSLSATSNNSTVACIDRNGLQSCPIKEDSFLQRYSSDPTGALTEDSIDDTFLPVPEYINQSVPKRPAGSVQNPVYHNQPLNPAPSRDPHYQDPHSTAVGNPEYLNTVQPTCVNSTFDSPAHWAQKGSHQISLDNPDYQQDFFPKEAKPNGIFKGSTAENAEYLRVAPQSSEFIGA
T7 sequence (Q00537 whole entry): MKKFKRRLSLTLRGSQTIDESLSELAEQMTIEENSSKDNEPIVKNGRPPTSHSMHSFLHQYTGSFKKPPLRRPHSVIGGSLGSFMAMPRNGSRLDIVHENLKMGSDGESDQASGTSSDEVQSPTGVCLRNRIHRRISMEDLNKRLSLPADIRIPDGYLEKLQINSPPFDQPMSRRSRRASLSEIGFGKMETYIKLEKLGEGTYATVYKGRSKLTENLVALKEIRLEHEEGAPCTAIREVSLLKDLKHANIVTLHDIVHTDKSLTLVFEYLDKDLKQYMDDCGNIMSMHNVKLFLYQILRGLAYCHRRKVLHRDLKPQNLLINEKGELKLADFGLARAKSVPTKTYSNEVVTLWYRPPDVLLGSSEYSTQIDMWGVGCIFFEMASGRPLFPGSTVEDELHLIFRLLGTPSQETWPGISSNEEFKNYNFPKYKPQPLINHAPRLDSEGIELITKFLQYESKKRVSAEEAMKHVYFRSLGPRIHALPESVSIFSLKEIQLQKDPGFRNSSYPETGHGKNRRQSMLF
T13 sequence (P41240 whole entry): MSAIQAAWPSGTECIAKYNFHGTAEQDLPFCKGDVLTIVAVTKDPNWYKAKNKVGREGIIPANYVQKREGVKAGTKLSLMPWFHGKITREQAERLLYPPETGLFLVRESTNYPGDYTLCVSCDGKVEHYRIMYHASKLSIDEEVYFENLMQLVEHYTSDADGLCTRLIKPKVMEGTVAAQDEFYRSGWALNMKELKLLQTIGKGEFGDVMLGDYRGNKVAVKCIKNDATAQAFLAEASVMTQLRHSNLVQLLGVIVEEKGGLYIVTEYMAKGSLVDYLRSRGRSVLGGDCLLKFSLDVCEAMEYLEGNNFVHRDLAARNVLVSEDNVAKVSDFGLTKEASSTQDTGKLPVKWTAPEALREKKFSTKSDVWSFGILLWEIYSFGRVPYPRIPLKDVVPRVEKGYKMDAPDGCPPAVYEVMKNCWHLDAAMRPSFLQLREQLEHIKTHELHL
T3 sequence (Q9UM73 19-1620): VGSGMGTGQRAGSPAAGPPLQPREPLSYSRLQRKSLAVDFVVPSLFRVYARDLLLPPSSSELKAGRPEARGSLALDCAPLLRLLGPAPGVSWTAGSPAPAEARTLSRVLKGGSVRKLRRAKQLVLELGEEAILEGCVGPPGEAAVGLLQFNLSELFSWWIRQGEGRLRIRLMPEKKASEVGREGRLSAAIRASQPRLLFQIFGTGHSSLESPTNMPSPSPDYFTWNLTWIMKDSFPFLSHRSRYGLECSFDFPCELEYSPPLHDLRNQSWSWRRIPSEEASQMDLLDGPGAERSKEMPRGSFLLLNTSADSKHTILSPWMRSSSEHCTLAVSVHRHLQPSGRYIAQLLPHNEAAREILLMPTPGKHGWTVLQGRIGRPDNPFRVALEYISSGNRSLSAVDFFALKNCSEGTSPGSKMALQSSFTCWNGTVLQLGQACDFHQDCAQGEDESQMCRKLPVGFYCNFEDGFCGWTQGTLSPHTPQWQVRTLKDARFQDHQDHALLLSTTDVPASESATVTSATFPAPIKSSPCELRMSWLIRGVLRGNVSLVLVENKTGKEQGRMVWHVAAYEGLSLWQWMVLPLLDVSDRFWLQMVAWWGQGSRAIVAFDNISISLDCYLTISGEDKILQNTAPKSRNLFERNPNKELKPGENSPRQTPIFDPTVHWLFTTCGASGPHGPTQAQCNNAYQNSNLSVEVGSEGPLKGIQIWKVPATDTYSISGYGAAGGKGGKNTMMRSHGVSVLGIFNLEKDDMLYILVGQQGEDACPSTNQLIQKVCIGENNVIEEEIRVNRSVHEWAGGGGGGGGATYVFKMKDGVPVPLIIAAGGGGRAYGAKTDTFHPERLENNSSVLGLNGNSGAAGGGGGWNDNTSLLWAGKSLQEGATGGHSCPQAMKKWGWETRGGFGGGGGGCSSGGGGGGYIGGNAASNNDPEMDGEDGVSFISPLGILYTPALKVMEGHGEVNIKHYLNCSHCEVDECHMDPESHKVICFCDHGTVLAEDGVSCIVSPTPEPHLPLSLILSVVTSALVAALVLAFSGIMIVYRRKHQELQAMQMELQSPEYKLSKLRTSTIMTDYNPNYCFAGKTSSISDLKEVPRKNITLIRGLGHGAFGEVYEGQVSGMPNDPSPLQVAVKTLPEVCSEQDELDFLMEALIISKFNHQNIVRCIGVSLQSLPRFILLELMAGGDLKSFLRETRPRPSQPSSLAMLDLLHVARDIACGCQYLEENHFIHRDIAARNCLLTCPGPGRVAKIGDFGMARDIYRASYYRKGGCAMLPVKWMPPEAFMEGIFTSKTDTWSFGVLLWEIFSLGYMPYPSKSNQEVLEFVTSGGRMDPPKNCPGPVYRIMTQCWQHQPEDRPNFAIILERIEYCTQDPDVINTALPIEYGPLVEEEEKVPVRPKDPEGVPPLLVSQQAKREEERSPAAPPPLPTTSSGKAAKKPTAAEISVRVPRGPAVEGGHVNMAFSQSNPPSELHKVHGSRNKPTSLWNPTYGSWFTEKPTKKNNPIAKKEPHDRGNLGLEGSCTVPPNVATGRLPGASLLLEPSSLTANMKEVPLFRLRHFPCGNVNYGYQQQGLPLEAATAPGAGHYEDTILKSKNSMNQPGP
T12 sequence (P12931 whole entry): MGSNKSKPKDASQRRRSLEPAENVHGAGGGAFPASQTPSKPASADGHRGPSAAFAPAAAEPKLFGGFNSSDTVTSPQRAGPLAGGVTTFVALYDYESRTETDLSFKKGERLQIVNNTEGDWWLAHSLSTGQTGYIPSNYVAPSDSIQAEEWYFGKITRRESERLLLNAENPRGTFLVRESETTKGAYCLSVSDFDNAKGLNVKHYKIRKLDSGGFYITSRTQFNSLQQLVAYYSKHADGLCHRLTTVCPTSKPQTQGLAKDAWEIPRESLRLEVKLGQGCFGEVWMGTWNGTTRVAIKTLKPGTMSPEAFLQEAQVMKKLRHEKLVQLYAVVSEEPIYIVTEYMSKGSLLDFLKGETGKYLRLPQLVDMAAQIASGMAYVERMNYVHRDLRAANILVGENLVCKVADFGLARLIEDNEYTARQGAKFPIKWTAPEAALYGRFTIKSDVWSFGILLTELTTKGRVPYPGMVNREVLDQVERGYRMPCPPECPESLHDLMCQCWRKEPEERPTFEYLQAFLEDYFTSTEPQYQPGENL

Consider `N[C@H]1CC[C@H](Nc2cc(-c3cccc(NCc4cccc(F)c4)n3)c(Cl)cn2)CC1` [i-CDK9, N2′-(trans-4-aminocyclohexyl)-5′-chloro-N6-(3-fluorobenzyl)-2,4′-bipyridine-2′,6-diamine], for which the IC50 at EGFR was above 10 µM; at BTK it was above 10 µM; on ALK, above 10 µM; on FYN it was above 10 µM; at SYK it was above 10 µM; on CLK1, 0.525 µM. Also, the IC50 was above 0.079 µM at PCTK2; above 10 µM on AXL; above 10 µM on EPHB4; above 10 µM at MAPKAPK5; above 10 µM at PIM2; above 10 µM on SRC. Moreover, the 50% inhibitory concentration (IC50) at CSK, on PKN2, at CSNK1G3, on AURKA and at PDGFRA was above 10 µM in each case.

As a reminder, the IC50 is the concentration that inhibits the measured activity by half.
